{"source": "patent US20240269128A1", "about": "“COMPOUNDS FOR TREATING OR PREVENTING ALZHEIMER'S DISEASE” (THE UNITED STATES OF AMERICA, as represented by the …, priority 2021, published 2024)", "key": {"STAT3 [1]": {"target": "T1, STAT3 (Mus musculus, UniProt P42227)", "T1 sequence (P42227 whole entry)": "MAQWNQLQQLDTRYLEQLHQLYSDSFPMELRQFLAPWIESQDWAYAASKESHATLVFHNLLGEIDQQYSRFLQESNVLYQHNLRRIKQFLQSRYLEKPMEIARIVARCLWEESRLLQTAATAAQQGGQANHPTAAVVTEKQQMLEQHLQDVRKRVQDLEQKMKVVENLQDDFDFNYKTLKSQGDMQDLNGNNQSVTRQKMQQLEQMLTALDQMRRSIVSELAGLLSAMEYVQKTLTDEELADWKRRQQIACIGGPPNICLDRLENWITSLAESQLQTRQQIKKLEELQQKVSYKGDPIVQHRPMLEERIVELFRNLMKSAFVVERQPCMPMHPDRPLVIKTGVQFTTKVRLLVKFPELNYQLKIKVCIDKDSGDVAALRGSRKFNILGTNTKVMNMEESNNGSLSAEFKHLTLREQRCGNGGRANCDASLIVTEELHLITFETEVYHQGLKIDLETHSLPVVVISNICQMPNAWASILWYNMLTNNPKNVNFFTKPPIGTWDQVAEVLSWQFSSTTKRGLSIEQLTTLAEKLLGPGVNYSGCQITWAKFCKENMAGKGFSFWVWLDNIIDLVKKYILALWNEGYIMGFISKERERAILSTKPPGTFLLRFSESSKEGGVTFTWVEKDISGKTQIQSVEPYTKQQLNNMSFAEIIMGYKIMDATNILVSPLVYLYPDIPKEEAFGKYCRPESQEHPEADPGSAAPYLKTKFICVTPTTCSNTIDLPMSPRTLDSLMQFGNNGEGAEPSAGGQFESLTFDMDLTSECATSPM", "assay": "Western blot of hippocampal STAT3 and p-STAT3 after STET", "design": "hippocampal homogenate samples across four groups; from tissue; host or cells: acute hippocampal slices from WT and APP/PS1 (APPSwe/PS1dE9) mice", "protocol": "To test if the rescue of impaired late-LTP by HCQ may be through inactivation of STAT3, levels of total STAT3 and phosphorylated STAT3 (p-STAT3; Tyr705) were examined to determine whether they were reduced by HCQ treatment. Specifically, differences in STAT3 and pSTAT3 levels were tested in hippocampal homogenate samples across four groups: WT, APP/PS1, WT+50 μM HCQ, and APP/PS1+50 μM HCQ mice (5-months old). All hippocampal slices were incubated in the interphase chamber and HCQ was applied 30 minutes before and after STET. In each group, hippocampal slices were collected one hour after STET."}, "STAT3 [2]": {"target": "T2, STAT3 (Homo sapiens, UniProt P40763)", "T2 construct": "endogenous in cells; host or cells: HMC3 (ATCC CRL-3304), 1321N1 (Sigma-Aldrich), SK-N-BE(2)-M17 (ATCC CRL-2267)", "assay": "Western blot of total and phosphorylated STAT3 in human cell lines", "assay_type": "cell-based", "details": "50 μM; for p-STAT3 (Tyr705 and Ser727) / total STAT3: 48 hours", "protocol": "Cell and neuron cultures: Immortalized human microglia HMC3 cells (ATCC CRL-3304) and astrocytoma 1321N1 cells (Sigma-Aldrich; derived from human brain astrocytoma; Macintyre et al., 1972) were cultured in Eagle's minimum essential medium (EMEM) supplemented with 10% fetal bovine serum (FBS, Gibco) and 1% antibiotics and antimycotics (Gibco). Neuroblastoma SK-N-BE(2)-M17 (M17) (ATCC CRL-2267) cells were cultured in a 1:1 mixture of EMEM and F12 media, supplemented with 10% FBS plus 1% antibiotics and antimycotics.\nHCQ treatment: Treatment with hydroxychloroquine Sulfate (Selleckchem, Catalog No.S4430) was performed at 50 μM concentration.\nWestern blot analysis: Protein extracts were obtained by lysing cells with a denaturing buffer containing 2% sodium dodecyl sulfate (SDS) (Sigma-Aldrich) in 50 mM HEPES. After boiling and sonication, whole-cell protein extracts were size-fractionated through polyacrylamide gels and transferred to nitrocellulose membranes (Bio-Rad). Membranes were blocked with 5% non-fat dry milk and immunoblotted. Primary antibodies were employed that recognized total STAT3 (124H6) (Cell Signaling, 9139T), phosphorylated STAT3 (Tyr705) (D3A7) XP® (Cell Signaling, 9145S), and phosphorylated STAT3 (Ser727) (Cell Signaling, 94994S).\n(§1) Statistical analysis: Digitized images were obtained, processed, and quantified with ImageLab version 6.1 (BioRad Laboratories)."}, "STAT3 [3]": {"target": "T2, STAT3", "assay": "Western blot of p-STAT3 in tau phosphorylation assay", "assay_type": "cell-based", "protocol": "Western blot analyses: Samples for western blot analyses were prepared from 3 assays which provided evidence of HCQ-associated rescue (i.e., Ab1-42 clearance, tau phosphorylation, and LPS-induced neuroinflammation). Samples were prepared identically as described above in section: Effect of HCQ on AD-related phenotypes in cell culture, and scaled up to 24-well format to allow for adequate sample volume. After HCQ treatment, cells were washed once with PBS and harvested in 50 μl 50 mM HEPES+2% SDS lysis buffer. The extracts were then boiled at 95° C. for 5 mins. Analytic methods were identical to those described above in Example 4.\nStatistical analyses: Statistical analysis was performed using STATA 16.1. Group differences were evaluated using two-sample t-tests (parametric) to calculate differences in p-STAT3 levels between HCQ treated and control samples. We additionally used the Wilcoxon rank-sum test (non-parametric) to confirm that results were robust to distributional assumptions. Significant differences were indicated as p<0.05."}, "STAT3 [4]": {"target": "T1, STAT3", "assay": "Western blot of total and phosphorylated STAT3 in mouse embryonic cortical neurons", "assay_type": "cell-based", "design": "hippocampal homogenate samples across four groups; from tissue; host or cells: acute hippocampal slices from WT and APP/PS1 (APPSwe/PS1dE9) mice", "details": "50 μM, 48 hours", "protocol": "For primary cultures of embryonic cortical neurons, timed-pregnant mice were obtained from The Jackson Laboratory. Cultures were prepared from embryonic day (E) 14.5 cerebral tissues as described (Zhao et al., Cell Death Differ 2019, 26:1600-1614). Pregnant mice were killed by fast cervical dislocation, embryos and embryo brains were removed, and the cerebral hemisphere was extracted in sterile Hank's balanced saline solution (HBSS). Brain tissues were incubated in 0.25% trypsin-EDTA for 30 min at 37° C.and then transferred to DMEM containing 10% fetal bovine serum (DMEM+). The tissues were transferred to neurobasal (NB) medium containing B27 supplements, 2 mM L-glutamine, antibiotics and antimycotics (Gibco), and 1 mM HEPES and dissociated by trituration using a fire-polished Pasteur pipet. The dissociated cells were seeded into polyethyleneimine-coated plastic culture dishes at a density of 60,000 cells/cm^2 and cultured in the same B27-containing NB medium. Experiments were started 5 days later.\nHCQ treatment: Treatment with hydroxychloroquine Sulfate (Selleckchem, Catalog No.S4430) was performed at 50 μM concentration. […]\nas §1"}, "[5]": {"system": "murine microglial cell line BV-2", "assay": "LPS-induced neuroinflammation in BV-2 microglial cells (cytokines by MSD V-PLEX, MTT)", "assay_type": "cell-based, mouse", "description": "Lipopolysaccharide (LPS)-Induced Neuroinflammation: The murine microglial cell line BV-2 was cultivated in DMEM medium supplemented with 10% FCS, 1% penicillin/streptomycin and 2 mM L-glutamine (culture medium). For LPS stimulation assay, 5000 BV-2 cells per well (uncoated 96 well plates) were plated out and the medium was changed to treatment medium (DMEM, 5% FCS, 2 mM L-glutamine). After changing cells to treatment medium, drug compounds were administered 1 hour before LPS stimulation (Sigma-Aldrich; L6529; 1 mg/ml stock in ddH2O, final concentration in well: 100 ng/ml (dilutions in medium)). Cells treated with vehicle, cells treated with LPS alone, as well as cells treated with LPS plus reference item (dexamethasone 10 μM, Sigma D4902) served as controls. After 24 h of stimulation, cell supernatants were collected for the cytokine measurement (V-PLEX Proinflammatory Panel 1 Mouse Kit, K15048D, Mesoscale) and cells were subjected to MTT assay.\nMTT Assay: MTT solution was added to each well in a final concentration of 0.5 mg/mL. After 2 h, the MTT containing medium was aspirated. Cells were lysed in 3% SDS and the formazan crystals were dissolved in isopropanol/HCl. Optical density was measured with a Cytation 5 (Biotek) multimode reader at wavelength 570 nm. Values were calculated as percent of control values (vehicle control or lesion control).\nAfter changing cells to treatment medium, HCQ (0.25 μM, 2.5 μM and 25 μM) was applied 1 hour before LPS stimulation (Sigma-Aldrich; L6529; 1 mg/ml stock in ddH2O, final concentration in well: 100 ng/ml (dilutions in medium))."}, "[6]": {"details": "albino rats; cited from earlier work"}, "[7]": {"system": "SH-SY5Y-hTau441(V337M/R406W) cells", "assay": "Tau phosphorylation assay (Phospho(Thr231)/Total Tau)", "assay_type": "cell-based, human", "details": "25 μM HCQ", "description": "Tau Phosphorylation: SH-SY5Y-hTau441(V337M/R406W) cells were maintained in culture medium (DMEM medium, 10% FCS, 1% NEAA, 1% L-Glutamine, 100 g/mL Gentamycin, 300 μg/mL Geneticin G-418) and differentiated with 10 μM retinoic acid (RA) for 5 days changing medium every 2 to 3 days. Prior to the treatment, cells were seeded onto 24-well plates at a cell density of 2×10^5 cells per well (DIV1). Drug compounds were applied on DIV2. After 24 h of incubation (DIV3), cells on 24-well plates were harvested in 60 μL RIPA-Buffer [50 mM Tris pH 7.4, 1% Nonidet P40, 0.25% Na-deoxy-cholate, 150 mM NaCl, 1 mM EDTA supplemented with freshly added 1 μM NaF, 0.2 mM Na-ortho-vanadate, 80 μM Glycerophosphate, protease (Calbiochem) and phosphatase (Sigma) inhibitor cocktail]. Protein concentration was determined by BCA assay (Pierce, ThermoFisher) and samples were adjusted to a uniform total protein concentration. Total Tau and phosphorylated Tau were determined by immunosorbent assay from Mesoscale Discovery (Phospho(Thr231)/Total Tau Kit K15121D, Mesoscale Discovery).\nTau phosphorylation: SH-SY5Y-hTau441(V337M/R406W) cells were maintained in culture medium (DMEM medium, 10% FCS, 1% NEAA, 1% L-Glutamine, 100 μg/mL Gentamycin, 300 μg/mL Geneticin G-418) and differentiated with 10 μM retinoic acid (RA) for 5 days changing medium every 2 to 3 days. Prior to the treatment, cells were seeded onto 24-well plates at a cell density of 2×10^5 cells per well (DIV1). HCQ (25 μM) was applied on DIV2. After 24 h of incubation (DIV3), cells on 24-well plates were harvested in 60 μL RIPA-Buffer [50 mM Tris pH 7.4, 1% Nonidet P40, 0.25% Na-deoxy-cholate, 150 mM NaCl, 1 mM EDTA supplemented with freshly added 1 μM NaF, 0.2 mM Na-ortho-vanadate, 80 μM Glycerophosphate, protease (Calbiochem) and phosphatase (Sigma) inhibitor cocktail]. Protein concentration was determined by BCA assay (Pierce, ThermoFisher) and samples were adjusted to a uniform total protein concentration. Total Tau and phosphorylated Tau were determined by immunosorbent assay from Mesoscale Discovery (Phospho(Thr231)/Total Tau Kit K15121D, Mesoscale Discovery).\nTau Phosphorylation: SH-SY5Y-hTau441(V337M/R406W) cells were maintained in culture medium [DMEM medium, 10% FCS, 1% nonessential amino acids (NEAA), 1% l-glutamine, gentamycin (100 μg/ml), and geneticin G-418 (300 μg/ml)] and differentiated with 10 μM retinoic acid for 5 days changing medium every 2 to 3 days. […] Protein concentration was determined by BCA assay (Pierce, Thermo Fisher Scientific, Waltham, MA), and samples were adjusted to a uniform total protein concentration. Total tau and phosphorylated tau were determined by immunosorbent assay from Mesoscale Discovery [Phospho(Thr231)/Total Tau Kit K15121D, Mesoscale Discovery, Meso Scale Diagnostics]. […]"}}}
{"smiles": "CCN(CCO)CCCC(C)Nc1ccnc2cc(Cl)ccc12", "note": "(stereo not shown) [HCQ, hydroxychloroquine]", "values": [{"measurement": "hippocampal p-STAT3 (Tyr705)", "setting": "STAT3 [1]; APP/PS1+50 μM HCQ vs untreated APP/PS1", "result": "significantly lower"}, {"measurement": "hippocampal total STAT3", "setting": "STAT3 [1]; APP/PS1 vs APP/PS1+50 μM HCQ", "result": "no significant difference"}, {"measurement": "hippocampal total STAT3 and p-STAT3 (Tyr705)", "setting": "STAT3 [1]; WT vs WT+50 μM HCQ", "result": "similar"}, {"measurement": "cell viability", "setting": "STAT3 [2]", "result": "did not have adverse effects on cell viability"}, {"measurement": "p-STAT3 (Tyr705 and Ser727)", "setting": "STAT3 [2]; 1321N1 cells", "result": "reduced"}, {"measurement": "total STAT3", "setting": "STAT3 [2]; 1321N1 cells", "result": "without alteration"}, {"measurement": "p-STAT3 (Tyr705 and Ser727)", "setting": "STAT3 [2]; HMC3 cells", "result": "reduced"}, {"measurement": "total STAT3", "setting": "STAT3 [2]; HMC3 cells", "result": "without alteration"}, {"measurement": "phosphorylated STAT3 and total STAT3", "setting": "STAT3 [2]; SK-N-BE(2)-M17 cells", "result": "non-significant"}, {"measurement": "p-STAT3 (Tyr705)", "setting": "STAT3 [3]; 25 μM and 2.5 μM, relative to VC", "result": "lowered"}, {"measurement": "p-STAT3 (Ser727)", "setting": "STAT3 [3]; 25 μM, 2.5 μM and 0.25 μM", "result": "lowered"}, {"measurement": "p-STAT3 (Tyr705 and Ser727)", "setting": "STAT3 [4]", "result": "reduced"}, {"measurement": "total STAT3", "setting": "STAT3 [4]", "result": "without alteration"}, {"measurement": "IL-1b", "setting": "[5]; 2.5 μM, 25 μM, LPS", "result": "dose dependent (2.5 μM<25 μM) reduction"}, {"measurement": "IL-6", "setting": "[5]; 2.5 μM, 25 μM, LPS", "result": "dose dependent (2.5 μM<25 μM) reduction"}, {"measurement": "IL-10", "setting": "[5]; 2.5 μM, 25 μM, LPS", "result": "dose dependent (2.5 μM<25 μM) reduction"}, {"measurement": "IL-12p70", "setting": "[5]; 2.5 μM, 25 μM, LPS", "result": "dose dependent (2.5 μM<25 μM) reduction"}, {"measurement": "TNF-alpha secretion", "setting": "[5]; 25 μM, LPS", "result": "reduction"}, {"measurement": "cell viability", "setting": "[5]; HCQ in LPS assay", "result": "without any adverse effects on cell viability"}, {"measurement": "Kp brain/plasma", "setting": "[6]", "result": "4-31"}, {"measurement": "phosphorylated tau (ptau231)", "setting": "[7]", "result": "reduced"}, {"measurement": "total tau", "setting": "[7]", "result": "reduced"}]}
